Reference: ChEMBL document CHEMBL1909046, “DrugMatrix in vitro pharmacology data”

Experiments:
Interstitial collagenase = target: T1, Interstitial collagenase (Homo sapiens, UniProt P03956); type: tissue-based, Rheumatoid synovial fibroblasts;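 also: MMP-1 enzyme inhibition assay using a peptide substrate; in other assays of this panel Not Active means under 50% inhibition at 10 µM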
T1 sequence (P03956 whole entry): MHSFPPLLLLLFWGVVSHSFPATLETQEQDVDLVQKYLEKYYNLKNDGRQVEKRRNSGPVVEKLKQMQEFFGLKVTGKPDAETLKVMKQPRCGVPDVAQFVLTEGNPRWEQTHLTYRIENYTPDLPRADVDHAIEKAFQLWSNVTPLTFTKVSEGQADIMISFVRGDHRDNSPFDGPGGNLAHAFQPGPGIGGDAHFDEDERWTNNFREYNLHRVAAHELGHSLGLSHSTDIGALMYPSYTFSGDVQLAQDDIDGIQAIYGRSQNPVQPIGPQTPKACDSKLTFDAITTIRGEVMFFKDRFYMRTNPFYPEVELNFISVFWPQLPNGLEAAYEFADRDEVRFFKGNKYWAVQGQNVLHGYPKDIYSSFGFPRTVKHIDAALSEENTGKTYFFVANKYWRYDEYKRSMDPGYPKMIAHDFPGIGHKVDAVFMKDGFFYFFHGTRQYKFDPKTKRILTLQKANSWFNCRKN

Glucocorticoid receptor = target: T2, Glucocorticoid receptor (Homo sapiens, UniProt P04150); settings: hela s3; also: in other assays of this panel Not Active means under 50% inhibition at 10 µM
T2 sequence (P04150 whole entry): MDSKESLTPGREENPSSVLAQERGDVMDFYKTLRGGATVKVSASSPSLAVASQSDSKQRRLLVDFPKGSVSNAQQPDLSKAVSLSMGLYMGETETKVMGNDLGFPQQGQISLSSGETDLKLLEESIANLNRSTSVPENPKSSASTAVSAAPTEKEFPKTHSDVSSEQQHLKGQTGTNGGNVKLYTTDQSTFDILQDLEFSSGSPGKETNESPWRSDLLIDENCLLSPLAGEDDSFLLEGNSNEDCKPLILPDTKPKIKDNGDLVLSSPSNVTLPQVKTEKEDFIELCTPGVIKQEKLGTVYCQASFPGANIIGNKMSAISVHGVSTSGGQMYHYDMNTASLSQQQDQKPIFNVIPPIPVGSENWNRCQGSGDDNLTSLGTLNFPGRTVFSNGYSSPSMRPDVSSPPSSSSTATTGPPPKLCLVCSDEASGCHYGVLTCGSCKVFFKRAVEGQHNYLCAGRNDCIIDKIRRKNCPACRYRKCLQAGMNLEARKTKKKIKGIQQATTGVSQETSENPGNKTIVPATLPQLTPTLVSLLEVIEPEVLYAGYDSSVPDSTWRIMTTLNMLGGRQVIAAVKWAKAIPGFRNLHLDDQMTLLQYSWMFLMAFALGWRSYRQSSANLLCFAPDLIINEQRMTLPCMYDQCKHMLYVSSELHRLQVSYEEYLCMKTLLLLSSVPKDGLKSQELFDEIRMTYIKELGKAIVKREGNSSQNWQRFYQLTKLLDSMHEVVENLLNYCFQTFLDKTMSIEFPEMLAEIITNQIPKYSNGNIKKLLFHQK

Melanocortin receptor 3 = Melanocortin receptor 3 (Homo sapiens, UniProt P41968); type: cell membranes, Membrane; settings: hek293; also: in other assays of this panel Not Active means under 50% inhibition at 10 µM
Sequence of Melanocortin receptor 3 (P41968 whole entry): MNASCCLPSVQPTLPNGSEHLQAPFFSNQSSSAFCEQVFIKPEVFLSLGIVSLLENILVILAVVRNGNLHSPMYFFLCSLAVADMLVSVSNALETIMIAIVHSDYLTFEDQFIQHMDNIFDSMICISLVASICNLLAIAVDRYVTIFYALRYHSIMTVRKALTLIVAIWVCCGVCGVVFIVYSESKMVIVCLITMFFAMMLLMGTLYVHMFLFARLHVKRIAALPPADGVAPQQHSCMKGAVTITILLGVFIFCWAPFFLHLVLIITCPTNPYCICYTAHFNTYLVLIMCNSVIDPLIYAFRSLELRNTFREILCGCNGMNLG

[1] = target: T3, Angiotensin-converting enzyme (Oryctolagus cuniculus, UniProt P12822); test: biochemical; type: tissue-based, Lung;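 also: enzymatic inhibition of angiotensin-converting enzyme measured with FAPGG as the substrate; in other assays of this panel Not Active means under 50% inhibition at 10 µM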
T3 sequence (P12822 whole entry): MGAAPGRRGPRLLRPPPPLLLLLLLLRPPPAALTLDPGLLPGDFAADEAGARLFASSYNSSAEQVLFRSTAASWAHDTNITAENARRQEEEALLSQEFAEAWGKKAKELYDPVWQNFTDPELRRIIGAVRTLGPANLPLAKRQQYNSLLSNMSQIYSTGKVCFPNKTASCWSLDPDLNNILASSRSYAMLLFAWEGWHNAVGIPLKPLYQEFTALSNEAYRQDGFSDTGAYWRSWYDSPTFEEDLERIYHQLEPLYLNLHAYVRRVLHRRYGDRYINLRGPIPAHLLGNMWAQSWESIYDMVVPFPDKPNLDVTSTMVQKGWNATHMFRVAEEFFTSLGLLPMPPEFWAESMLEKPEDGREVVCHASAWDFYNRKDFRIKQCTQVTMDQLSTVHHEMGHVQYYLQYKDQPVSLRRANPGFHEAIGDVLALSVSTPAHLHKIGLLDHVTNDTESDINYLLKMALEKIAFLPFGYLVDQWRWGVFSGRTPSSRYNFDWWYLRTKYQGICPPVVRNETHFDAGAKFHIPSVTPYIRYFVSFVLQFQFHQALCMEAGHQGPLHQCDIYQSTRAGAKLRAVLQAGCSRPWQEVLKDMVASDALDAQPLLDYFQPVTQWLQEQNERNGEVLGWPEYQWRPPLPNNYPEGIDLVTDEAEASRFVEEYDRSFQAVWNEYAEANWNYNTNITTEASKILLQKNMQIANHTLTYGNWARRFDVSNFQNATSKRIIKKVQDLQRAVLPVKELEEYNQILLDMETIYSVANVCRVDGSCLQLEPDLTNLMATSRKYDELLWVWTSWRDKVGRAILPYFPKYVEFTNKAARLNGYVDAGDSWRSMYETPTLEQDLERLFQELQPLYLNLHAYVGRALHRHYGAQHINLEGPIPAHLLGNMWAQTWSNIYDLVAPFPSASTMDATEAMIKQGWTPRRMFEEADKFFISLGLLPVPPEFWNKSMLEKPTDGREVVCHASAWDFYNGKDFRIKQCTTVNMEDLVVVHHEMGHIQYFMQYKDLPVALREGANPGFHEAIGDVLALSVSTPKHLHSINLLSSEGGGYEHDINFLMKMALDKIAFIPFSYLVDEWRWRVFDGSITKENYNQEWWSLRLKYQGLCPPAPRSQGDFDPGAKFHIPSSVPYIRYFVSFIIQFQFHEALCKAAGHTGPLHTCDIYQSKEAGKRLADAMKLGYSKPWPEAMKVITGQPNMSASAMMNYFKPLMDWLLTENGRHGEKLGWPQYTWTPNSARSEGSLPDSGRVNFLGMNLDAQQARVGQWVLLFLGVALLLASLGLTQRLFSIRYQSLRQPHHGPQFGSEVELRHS

[2] = target: Epidermal growth factor receptor (Homo sapiens, UniProt P00533); test: DRUGMATRIX: Protein Tyrosine Kinase, EGF Receptor enzyme inhibition (substrate: Poly(Glu:Tyr)); type: cell-based, Insect cells; settings: insect cells; Not Active = under 50% inhibition at 10 µM
Sequence of Epidermal growth factor receptor (P00533 whole entry): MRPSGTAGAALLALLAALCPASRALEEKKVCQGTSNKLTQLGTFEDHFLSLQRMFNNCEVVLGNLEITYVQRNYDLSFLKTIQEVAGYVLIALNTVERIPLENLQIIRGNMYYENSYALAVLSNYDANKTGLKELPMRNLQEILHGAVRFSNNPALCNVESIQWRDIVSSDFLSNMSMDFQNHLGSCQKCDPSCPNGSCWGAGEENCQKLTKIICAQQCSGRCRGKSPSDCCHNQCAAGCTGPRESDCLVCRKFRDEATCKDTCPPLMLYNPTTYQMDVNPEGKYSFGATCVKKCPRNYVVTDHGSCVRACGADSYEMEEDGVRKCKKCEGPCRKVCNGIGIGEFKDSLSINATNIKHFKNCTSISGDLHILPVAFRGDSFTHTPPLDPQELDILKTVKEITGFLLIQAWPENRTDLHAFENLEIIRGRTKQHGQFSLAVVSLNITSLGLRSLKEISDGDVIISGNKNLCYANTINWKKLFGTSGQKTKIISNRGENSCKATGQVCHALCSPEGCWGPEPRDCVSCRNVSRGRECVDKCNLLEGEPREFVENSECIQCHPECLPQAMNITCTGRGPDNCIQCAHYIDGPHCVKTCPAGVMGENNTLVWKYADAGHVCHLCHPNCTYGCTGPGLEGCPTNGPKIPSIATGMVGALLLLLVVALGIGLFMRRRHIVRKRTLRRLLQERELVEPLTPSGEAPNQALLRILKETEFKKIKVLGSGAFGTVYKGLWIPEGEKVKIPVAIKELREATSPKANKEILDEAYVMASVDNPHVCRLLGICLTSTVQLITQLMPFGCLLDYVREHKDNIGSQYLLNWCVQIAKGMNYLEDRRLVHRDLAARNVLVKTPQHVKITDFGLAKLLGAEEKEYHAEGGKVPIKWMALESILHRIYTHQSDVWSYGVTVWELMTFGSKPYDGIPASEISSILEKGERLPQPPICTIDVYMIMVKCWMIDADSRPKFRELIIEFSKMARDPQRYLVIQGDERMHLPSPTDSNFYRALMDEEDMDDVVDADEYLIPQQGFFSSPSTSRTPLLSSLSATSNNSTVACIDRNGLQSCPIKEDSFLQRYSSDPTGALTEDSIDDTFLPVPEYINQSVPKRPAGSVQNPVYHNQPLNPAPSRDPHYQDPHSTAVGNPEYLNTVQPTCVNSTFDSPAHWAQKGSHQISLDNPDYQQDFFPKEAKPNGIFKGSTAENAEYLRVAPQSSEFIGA

[3] = target: Beta-2 adrenergic receptor (Homo sapiens, UniProt P07550); test: DRUGMATRIX: Adrenergic beta2 radioligand binding (ligand: [3H] CGP-12177); type: cell membranes, Membrane; settings: cho; Not Active = under 50% inhibition at 10 µM
Sequence of Beta-2 adrenergic receptor (P07550 whole entry): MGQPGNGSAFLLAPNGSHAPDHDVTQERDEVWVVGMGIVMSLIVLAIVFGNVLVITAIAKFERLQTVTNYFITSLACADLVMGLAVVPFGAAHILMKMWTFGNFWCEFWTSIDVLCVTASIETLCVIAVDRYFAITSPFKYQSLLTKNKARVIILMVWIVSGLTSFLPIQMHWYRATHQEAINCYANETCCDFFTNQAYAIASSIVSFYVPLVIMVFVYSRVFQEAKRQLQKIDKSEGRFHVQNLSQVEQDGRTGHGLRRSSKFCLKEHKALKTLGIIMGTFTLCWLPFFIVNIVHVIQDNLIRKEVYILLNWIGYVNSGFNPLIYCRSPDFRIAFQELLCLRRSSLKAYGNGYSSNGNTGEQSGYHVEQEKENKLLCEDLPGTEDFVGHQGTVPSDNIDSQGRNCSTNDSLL

Insulin receptor = Insulin receptor (Rattus norvegicus, UniProt P15127); type: cell membranes, Wistar, Liver, Membrane; also: in other assays of this panel Not Active means under 50% inhibition at 10 µM
Sequence of Insulin receptor (P15127 27-759 limits assumed): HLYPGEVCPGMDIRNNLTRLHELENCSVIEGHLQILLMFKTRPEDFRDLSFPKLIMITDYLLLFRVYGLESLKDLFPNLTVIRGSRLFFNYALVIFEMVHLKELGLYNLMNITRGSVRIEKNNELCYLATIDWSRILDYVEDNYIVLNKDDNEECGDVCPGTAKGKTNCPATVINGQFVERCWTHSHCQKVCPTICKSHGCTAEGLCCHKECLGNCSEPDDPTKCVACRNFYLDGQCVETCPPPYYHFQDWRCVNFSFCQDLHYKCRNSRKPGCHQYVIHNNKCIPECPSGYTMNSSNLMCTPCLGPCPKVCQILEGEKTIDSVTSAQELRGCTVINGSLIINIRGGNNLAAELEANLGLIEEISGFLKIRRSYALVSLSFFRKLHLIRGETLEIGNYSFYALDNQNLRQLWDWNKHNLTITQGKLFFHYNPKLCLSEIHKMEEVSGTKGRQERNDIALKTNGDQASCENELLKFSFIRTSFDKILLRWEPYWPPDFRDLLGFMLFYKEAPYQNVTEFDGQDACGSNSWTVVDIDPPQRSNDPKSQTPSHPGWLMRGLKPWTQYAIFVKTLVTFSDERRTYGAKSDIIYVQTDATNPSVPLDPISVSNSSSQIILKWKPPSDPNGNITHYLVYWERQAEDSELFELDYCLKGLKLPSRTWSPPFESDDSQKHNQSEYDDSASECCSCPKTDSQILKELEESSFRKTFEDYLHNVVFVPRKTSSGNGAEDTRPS
Sequence of Insulin receptor (P15127 764-1383 limits assumed): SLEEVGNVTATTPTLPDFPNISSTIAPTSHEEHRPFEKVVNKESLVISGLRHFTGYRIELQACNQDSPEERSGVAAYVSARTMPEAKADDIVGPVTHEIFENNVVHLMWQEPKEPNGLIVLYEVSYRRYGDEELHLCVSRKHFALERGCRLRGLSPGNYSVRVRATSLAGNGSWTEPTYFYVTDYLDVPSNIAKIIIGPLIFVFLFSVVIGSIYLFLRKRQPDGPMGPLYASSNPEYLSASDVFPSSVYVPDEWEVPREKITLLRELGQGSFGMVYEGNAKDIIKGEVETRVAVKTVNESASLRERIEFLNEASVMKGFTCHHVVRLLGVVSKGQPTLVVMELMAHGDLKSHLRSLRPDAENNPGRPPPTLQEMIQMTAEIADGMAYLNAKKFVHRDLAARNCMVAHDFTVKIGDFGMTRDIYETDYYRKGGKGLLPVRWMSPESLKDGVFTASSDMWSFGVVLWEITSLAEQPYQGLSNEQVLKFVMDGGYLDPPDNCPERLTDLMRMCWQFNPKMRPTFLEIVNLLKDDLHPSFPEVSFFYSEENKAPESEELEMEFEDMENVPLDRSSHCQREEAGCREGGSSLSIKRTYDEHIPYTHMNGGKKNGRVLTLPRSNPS

[4] = target: Mitogen-activated protein kinase 3 (Homo sapiens, UniProt P27361); test: DRUGMATRIX: Protein Serine/Threonine Kinase, ERK1 enzyme inhibition (substrate: Myelin Basic Protein); parameters: species or system Escherichia coli; settings: Not Active = under 50% inhibition at 10 µM
Sequence of Mitogen-activated protein kinase 3 (P27361 whole entry): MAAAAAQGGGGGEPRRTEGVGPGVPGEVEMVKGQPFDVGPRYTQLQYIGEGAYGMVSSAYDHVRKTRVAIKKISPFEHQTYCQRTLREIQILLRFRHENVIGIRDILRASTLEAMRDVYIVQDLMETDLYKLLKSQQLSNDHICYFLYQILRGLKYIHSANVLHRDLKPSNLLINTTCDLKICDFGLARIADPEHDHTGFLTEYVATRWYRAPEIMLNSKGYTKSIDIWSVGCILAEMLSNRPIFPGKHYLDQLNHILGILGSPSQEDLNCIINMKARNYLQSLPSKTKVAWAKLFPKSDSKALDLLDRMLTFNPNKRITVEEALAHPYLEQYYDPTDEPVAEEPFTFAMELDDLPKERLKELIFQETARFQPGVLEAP

COc1ccc2c(c1)c(CC(=O)OCC(=O)O)c(C)n2C(=O)c1ccc(Cl)cc1 [ACEMETACIN]
Not Active: IC50 (Interstitial collagenase) | IC50 (Glucocorticoid receptor) | IC50 (Melanocortin receptor 3) | IC50 [1] | IC50 [2] | IC50 [3] | IC50 (Insulin receptor) | IC50 [4]

COc1ccc([C@@H]2Sc3ccccc3N(CCN(C)C)C(=O)[C@@H]2OC(C)=O)cc1 [DILTIAZEM]
Not Active: IC50 (Interstitial collagenase) | IC50 (Glucocorticoid receptor) | IC50 (Melanocortin receptor 3) | IC50 [1] | IC50 [2] | IC50 [3] | IC50 (Insulin receptor) | IC50 [4]

NCC[C@H](O)C(=O)N[C@@H]1C[C@H](N)[C@@H](O[C@H]2O[C@H](CN)[C@@H](O)[C@H](O)[C@H]2O)[C@H](O)[C@H]1O[C@H]1O[C@H](CO)[C@@H](O)[C@H](N)[C@H]1O [AMIKACIN]
Not Active: IC50 (Interstitial collagenase) | IC50 (Glucocorticoid receptor) | IC50 (Melanocortin receptor 3) | IC50 [1] | IC50 [2] | IC50 [3] | IC50 (Insulin receptor) | IC50 [4]

CC(C)(Oc1ccc(CCNC(=O)c2ccc(Cl)cc2)cc1)C(=O)O [BEZAFIBRATE]
Not Active: IC50 (Interstitial collagenase) | IC50 (Glucocorticoid receptor) | IC50 (Melanocortin receptor 3) | IC50 [1] | IC50 [2] | IC50 [3] | IC50 (Insulin receptor) | IC50 [4]

CCCSc1ccc2nc(NC(=O)OC)[nH]c2c1 [ALBENDAZOLE]
Not Active: IC50 (Interstitial collagenase) | IC50 (Glucocorticoid receptor) | IC50 (Melanocortin receptor 3) | IC50 [1] | IC50 [2] | IC50 [3] | IC50 (Insulin receptor) | IC50 [4]

C=C1C(=O)O[C@@H]2C3O[C@]3(C)CC/C=C(\C)CC[C@@H]12 (stereo not given in full)
Not Active: IC50 (Interstitial collagenase) | IC50 (Glucocorticoid receptor) | IC50 (Melanocortin receptor 3) | IC50 [1] | IC50 [2] | IC50 [3] | IC50 (Insulin receptor) | IC50 [4]

CN1C(C(=O)Nc2ccccn2)=C(O)c2ccccc2S1(=O)=O [PIROXICAM]
Not Active: IC50 (Interstitial collagenase) | IC50 (Glucocorticoid receptor) | IC50 (Melanocortin receptor 3) | IC50 [1] | IC50 [2] | IC50 [3] | IC50 (Insulin receptor) | IC50 [4]

OCc1ccccc1 [BENZYL ALCOHOL]
Not Active: IC50 (Interstitial collagenase) | IC50 (Glucocorticoid receptor) | IC50 (Melanocortin receptor 3) | IC50 [1] | Ki [2] | IC50 [3] | IC50 (Insulin receptor) | IC50 [4]

N#C[C@H](O[C@@H]1O[C@H](CO[C@@H]2O[C@H](CO)[C@@H](O)[C@H](O)[C@H]2O)[C@@H](O)[C@H](O)[C@H]1O)c1ccccc1 [AMYGDALIN]
Not Active: Ki (Interstitial collagenase) | IC50 (Glucocorticoid receptor) | IC50 (Melanocortin receptor 3) | IC50 [1] | IC50 [2] | IC50 [3] | IC50 (Insulin receptor) | IC50 [4]

O=P1(NCCCl)OCCCN1CCCl (stereo not given) [IFOSFAMIDE]
Not Active: IC50 (Interstitial collagenase) | IC50 (Glucocorticoid receptor) | IC50 (Melanocortin receptor 3) | IC50 [1] | IC50 [2] | IC50 [3] | IC50 (Insulin receptor) | IC50 [4]

C=C1CC[C@H](O)C/C1=C/C=C1\CCC[C@]2(C)[C@@H]([C@H](C)/C=C/[C@H](C)C(C)C)CC[C@@H]12 [ERGOCALCIFEROL]
Not Active: IC50 (Interstitial collagenase) | IC50 (Glucocorticoid receptor) | IC50 (Melanocortin receptor 3) | IC50 [1] | IC50 [2] | IC50 [3] | IC50 (Insulin receptor) | IC50 [4]

Cc1ccccc1N1CCN(CCc2nnc3n2CCCC3)CC1 [DAPIPRAZOLE]
Not Active: IC50 (Interstitial collagenase) | IC50 (Glucocorticoid receptor) | IC50 (Melanocortin receptor 3) | IC50 [1] | IC50 [2] | IC50 [3] | IC50 (Insulin receptor) | IC50 [4]

CC=CC(=O)N(CC)c1ccccc1C
Not Active: IC50 (Interstitial collagenase) | IC50 (Glucocorticoid receptor) | IC50 (Melanocortin receptor 3) | IC50 [1] | IC50 [2] | IC50 [3] | IC50 (Insulin receptor) | IC50 [4]

COc1ccc(CN(CCN(C)C)c2ccccn2)cc1 [PYRILAMINE]
Not Active: IC50 (Interstitial collagenase) | IC50 (Glucocorticoid receptor) | IC50 (Melanocortin receptor 3) | IC50 [1] | IC50 [2] | IC50 [3] | IC50 (Insulin receptor) | IC50 [4]

CC[C@@]1(O)C(=O)OCc2c1cc1n(c2=O)Cc2cc3ccccc3nc2-1 [CAMPTOTHECIN]
Not Active: IC50 (Interstitial collagenase) | IC50 (Glucocorticoid receptor) | IC50 (Melanocortin receptor 3) | IC50 [1] | IC50 [2] | IC50 [3] | IC50 (Insulin receptor) | IC50 [4]
